From ChEMBL document CHEMBL4000183, “Phenylpropanoids from Juglans mandshurica exhibit cytotoxicities on liver cancer cell lines through apoptosis induction” (Bioorg Med Chem Lett, 2017)
pIC50: −log10 of the molar value. The source made the active and inactive calls. The rule behind the calls is not given here.

Key:
[1] = test system: HepG2; experiment: Cytotoxic activity against human HepG2 cells assessed as growth inhibition after 48 hrs by MTT assay; assay type: functional, cell-based; conditions: for pIC50: Homo sapiens, HepG2, 48 h
[2] = test system: Hep 3B2; experiment: Cytotoxic activity against human Hep3B cells assessed as growth inhibition after 48 hrs by MTT assay; assay type: functional, cell-based; conditions: for pIC50: Homo sapiens, Hep3B, 48 h
[3] = test system: HepG2; experiment: Cytotoxic activity against human HepG2 cells assessed as growth inhibition at 25 uM after 48 hrs by MTT assay; assay type: functional; conditions: HepG2, 48 h, read-out: GI
[4] = test system: HepG2; experiment: Cytotoxic activity against human HepG2 cells assessed as growth inhibition at 50 uM after 48 hrs by MTT assay; assay type: functional; conditions: HepG2, 48 h, read-out: GI
[5] = test system: HepG2; experiment: Cytotoxic activity against human HepG2 cells assessed as growth inhibition at 100 uM after 48 hrs by MTT assay; assay type: functional; conditions: HepG2, 48 h, read-out: GI
[6] = test system: Hep 3B2; experiment: Cytotoxic activity against human Hep3B cells assessed as growth inhibition at 6.25 uM after 48 hrs by MTT assay; assay type: functional; conditions: read-out: GI
[7] = test system: HepG2; experiment: Cytotoxic activity against human HepG2 cells assessed as growth inhibition at 6.25 uM after 48 hrs by MTT assay; assay type: functional; conditions: HepG2, 48 h, read-out: GI
[8] = test system: HepG2; experiment: Cytotoxic activity against human HepG2 cells assessed as growth inhibition at 12.5 uM after 48 hrs by MTT assay; assay type: functional; conditions: HepG2, 48 h, read-out: GI
[9] = test system: Hep 3B2; experiment: Cytotoxic activity against human Hep3B cells assessed as growth inhibition at 12.5 uM after 48 hrs by MTT assay; assay type: functional; conditions: read-out: GI
[10] = test system: Hep 3B2; experiment: Cytotoxic activity against human Hep3B cells assessed as growth inhibition at 100 uM after 48 hrs by MTT assay; assay type: functional; conditions: read-out: GI
[11] = test system: Hep 3B2; experiment: Cytotoxic activity against human Hep3B cells assessed as growth inhibition at 50 uM after 48 hrs by MTT assay; assay type: functional; conditions: read-out: GI
[12] = test system: Hep 3B2; experiment: Cytotoxic activity against human Hep3B cells assessed as growth inhibition at 25 uM after 48 hrs by MTT assay; assay type: functional; conditions: read-out: GI
[13] = test system: Hep 3B2; experiment: Induction of apoptosis in human Hep3B cells assessed as increase in cleaved PARP level at 70 uM after 48 hrs by Western blot analysis; assay type: functional, cell-based
[14] = test system: HepG2; experiment: Induction of apoptosis in human HepG2 cells assessed as decrease in Bcl-2 level at 60 uM after 48 hrs by Western blot analysis; assay type: functional, cell-based
[15] = test system: Hep 3B2; experiment: Induction of apoptosis in human Hep3B cells assessed as decrease in Bcl-2 level at 70 uM after 48 hrs by Western blot analysis; assay type: functional, cell-based
[16] = test system: Hep 3B2; experiment: Induction of apoptosis in human Hep3B cells assessed as increase in cleaved-caspase 9 level at 70 uM after 48 hrs by Western blot analysis; assay type: functional, cell-based
[17] = test system: HepG2; experiment: Induction of apoptosis in human HepG2 cells assessed as increase in cleaved-caspase 7 level at 60 uM after 48 hrs by Western blot analysis; assay type: functional, cell-based
[18] = test system: HepG2; experiment: Induction of apoptosis in human HepG2 cells assessed as chromatin condensation at 60 uM after 48 hrs by AO staining-based phase contrast microscopic analysis; assay type: functional, cell-based
[19] = test system: HepG2; experiment: Induction of apoptosis in human HepG2 cells assessed as decrease in pro-caspase 7 level at 60 uM after 48 hrs by Western blot analysis; assay type: functional, cell-based
[20] = test system: Hep 3B2; experiment: Induction of apoptosis in human Hep3B cells assessed as cell shrinkage at 70 uM after 48 hrs by AO staining-based phase contrast microscopic analysis; assay type: functional
[21] = test system: HepG2; experiment: Induction of apoptosis in human HepG2 cells assessed as formation of apoptotic bodies at 60 uM after 48 hrs by AO staining-based phase contrast microscopic analysis; assay type: functional, cell-based
[22] = test system: HepG2; experiment: Induction of apoptosis in human HepG2 cells assessed as increase in cleaved-caspase 9 level at 60 uM after 48 hrs by Western blot analysis; assay type: functional, cell-based
[23] = test system: HepG2; experiment: Induction of apoptosis in human HepG2 cells assessed as decrease in PARP level at 60 uM after 48 hrs by Western blot analysis; assay type: functional, cell-based
[24] = test system: Hep 3B2; experiment: Induction of apoptosis in human Hep3B cells assessed as chromatin condensation at 70 uM after 48 hrs by AO staining-based phase contrast microscopic analysis; assay type: functional, cell-based
[25] = test system: Hep 3B2; experiment: Induction of apoptosis in human Hep3B cells assessed as increase in cleaved-caspase 7 level at 70 uM after 48 hrs by Western blot analysis; assay type: functional, cell-based
[26] = test system: Hep 3B2; experiment: Induction of apoptosis in human Hep3B cells assessed as nuclear fragmentation at 70 uM after 48 hrs by AO staining-based phase contrast microscopic analysis; assay type: functional, cell-based
[27] = test system: Hep 3B2; experiment: Induction of apoptosis in human Hep3B cells assessed as decrease in PARP level at 70 uM after 48 hrs by Western blot analysis; assay type: functional, cell-based
[28] = test system: Hep 3B2; experiment: Induction of apoptosis in human Hep3B cells assessed as decrease in pro-caspase 7 level at 70 uM after 48 hrs by Western blot analysis; assay type: functional, cell-based
[29] = test system: HepG2; experiment: Induction of apoptosis in human HepG2 cells assessed as increase in cleaved PARP level at 60 uM after 48 hrs by Western blot analysis; assay type: functional, cell-based
[30] = test system: Hep 3B2; experiment: Induction of apoptosis in human Hep3B cells assessed as increase in Bax level at 70 uM after 48 hrs by Western blot analysis; assay type: functional, cell-based
[31] = test system: HepG2; experiment: Induction of apoptosis in human HepG2 cells assessed as decrease in pro-caspase 9 level at 60 uM after 48 hrs by Western blot analysis; assay type: functional, cell-based
[32] = test system: HepG2; experiment: Induction of apoptosis in human HepG2 cells assessed as nuclear fragmentation at 60 uM after 48 hrs by AO staining-based phase contrast microscopic analysis; assay type: functional, cell-based
[33] = test system: HepG2; experiment: Induction of apoptosis in human HepG2 cells assessed as increase in Bax level at 60 uM after 48 hrs by Western blot analysis; assay type: functional, cell-based
[34] = test system: Hep 3B2; experiment: Induction of apoptosis in human Hep3B cells assessed as decrease in pro-caspase 9 level at 70 uM after 48 hrs by Western blot analysis; assay type: functional, cell-based
[35] = test system: Hep 3B2; experiment: Induction of apoptosis in human Hep3B cells assessed as nuclear fragmentation at 50 uM after 48 hrs by AO staining-based phase contrast microscopic analysis; assay type: functional, cell-based
[36] = test system: Hep 3B2; experiment: Induction of apoptosis in human Hep3B cells assessed as increase in cleaved PARP level at 50 uM after 48 hrs by Western blot analysis; assay type: functional, cell-based
[37] = test system: Hep 3B2; experiment: Induction of apoptosis in human Hep3B cells assessed as increase in cleaved-caspase 7 level at 50 uM after 48 hrs by Western blot analysis; assay type: functional, cell-based
[38] = test system: Hep 3B2; experiment: Induction of apoptosis in human Hep3B cells assessed as increase in cleaved-caspase 9 level at 50 uM after 48 hrs by Western blot analysis; assay type: functional, cell-based
[39] = test system: Hep 3B2; experiment: Induction of apoptosis in human Hep3B cells assessed as decrease in pro-caspase 9 level at 50 uM after 48 hrs by Western blot analysis; assay type: functional, cell-based
[40] = test system: Hep 3B2; experiment: Induction of apoptosis in human Hep3B cells assessed as cell shrinkage at 50 uM after 48 hrs by AO staining-based phase contrast microscopic analysis; assay type: functional
[41] = test system: Hep 3B2; experiment: Induction of apoptosis in human Hep3B cells assessed as increase in Bax level at 50 uM after 48 hrs by Western blot analysis; assay type: functional, cell-based
[42] = test system: Hep 3B2; experiment: Induction of apoptosis in human Hep3B cells assessed as decrease in pro-caspase 7 level at 50 uM after 48 hrs by Western blot analysis; assay type: functional, cell-based
[43] = test system: Hep 3B2; experiment: Induction of apoptosis in human Hep3B cells assessed as decrease in PARP level at 50 uM after 48 hrs by Western blot analysis; assay type: functional, cell-based
[44] = test system: Hep 3B2; experiment: Induction of apoptosis in human Hep3B cells assessed as chromatin condensation at 50 uM after 48 hrs by AO staining-based phase contrast microscopic analysis; assay type: functional, cell-based
[45] = test system: Hep 3B2; experiment: Induction of apoptosis in human Hep3B cells assessed as decrease in Bcl-2 level at 50 uM after 48 hrs by Western blot analysis; assay type: functional, cell-based

## CC(/C=C\Oc1ccc(/C=C/CO)cc1)CO (stereo not given)
[1]
  growth inhibition (GI): 7.81%
[2]
  growth inhibition (GI): -15.72%

## COC(=O)/C=C/c1ccc(OC/C=C(\C)CO)cc1
[1]
  growth inhibition (GI): 86.42%
[2]
  growth inhibition (GI): 26.16%

## COC(=O)c1ccc(OCCC(C)CO)cc1 (stereo not given)
[1]
  growth inhibition (GI): -11.27%
[2]
  growth inhibition (GI): 19.85%

## O=c1[nH]cc(F)c(=O)[nH]1 [FLUOROURACIL]
[3]
  inhibition of growth at 25 µM: 39.2%
[1]
  growth inhibition (GI): 51.78%
  pIC50: 4.30 to 4.49
[4]
  inhibition of growth at 50 µM: 47.3%
[5]
  inhibition of growth at 100 µM: 51.2%
[6]
  inhibition of growth at 6.25 µM: 48.9%
[7]
  inhibition of growth at 6.25 µM: 19.3%
[8]
  inhibition of growth at 12.5 µM: 32.9%
[9]
  inhibition of growth at 12.5 µM: 50.6%
[10]
  inhibition of growth at 100 µM: 57%
[11]
  inhibition of growth at 50 µM: 54.5%
[12]
  inhibition of growth at 25 µM: 51.7%
[2]
  growth inhibition (GI): 56.74%
  pIC50: 4.92 to 4.98

## CC(CO)CCOc1ccc(/C=C/C=O)cc1 (stereo not given)
[3]
  inhibition of growth at 25 µM: 14.1%
[13]
  Activity: Active
[14]
  Activity: Active
[15]
  Activity: Active
[1]
  growth inhibition (GI): 83.9%
  pIC50: 4.23
[16]
  Activity: Active
[4]
  inhibition of growth at 50 µM: 57%
[5]
  inhibition of growth at 100 µM: 80%
[6]
  inhibition of growth at 6.25 µM: -4.07%
[7]
  inhibition of growth at 6.25 µM: 6.6%
[17]
  Activity: Active
[18]
  Activity: Active
[19]
  Activity: Active
[20]
  Activity: Active
[21]
  Activity: Active
[22]
  Activity: Active
[8]
  inhibition of growth at 12.5 µM: 0.24%
[9]
  inhibition of growth at 12.5 µM: -2.42%
[23]
  Activity: Active
[24]
  Activity: Active
[25]
  Activity: Active
[26]
  Activity: Active
[10]
  inhibition of growth at 100 µM: 85.8%
[27]
  Activity: Active
[28]
  Activity: Active
[11]
  inhibition of growth at 50 µM: 28.9%
[29]
  Activity: Active
[12]
  inhibition of growth at 25 µM: 0.48%
[30]
  Activity: Active
[31]
  Activity: Active
[32]
  Activity: Active
[33]
  Activity: Active
[34]
  Activity: Active
[2]
  growth inhibition (GI): 95.08%
  pIC50: 4.16

## CC(CO)CCOc1ccc(/C=C/CO)cc1 (stereo not given)
[1]
  growth inhibition (GI): 9.26%
[2]
  growth inhibition (GI): 7.75%

## C/C(=C\COc1ccc(/C=C/C=O)cc1)CO
[3]
  inhibition of growth at 25 µM: 7.01%
[14]
  Activity: Active
[35]
  Activity: Active
[36]
  Activity: Active
[1]
  growth inhibition (GI): 87.79%
  pIC50: 4.20
[4]
  inhibition of growth at 50 µM: 52%
[5]
  inhibition of growth at 100 µM: 69.2%
[6]
  inhibition of growth at 6.25 µM: -4.83%
[37]
  Activity: Active
[38]
  Activity: Active
[7]
  inhibition of growth at 6.25 µM: -9.7%
[17]
  Activity: Active
[18]
  Activity: Active
[19]
  Activity: Active
[21]
  Activity: Active
[39]
  Activity: Active
[22]
  Activity: Active
[8]
  inhibition of growth at 12.5 µM: 12.2%
[9]
  inhibition of growth at 12.5 µM: 9.1%
[23]
  Activity: Active
[40]
  Activity: Active
[41]
  Activity: Active
[10]
  inhibition of growth at 100 µM: 91.5%
[11]
  inhibition of growth at 50 µM: 77.7%
[29]
  Activity: Active
[12]
  inhibition of growth at 25 µM: 11.6%
[42]
  Activity: Active
[31]
  Activity: Active
[32]
  Activity: Active
[33]
  Activity: Active
[43]
  Activity: Active
[44]
  Activity: Active
[2]
  growth inhibition (GI): 93.78%
  pIC50: 4.33
[45]
  Activity: Active

## CC(/C=C\Oc1ccc(CCCO)cc1)CO (single isomer, unassigned; (+))
[1]
  growth inhibition (GI): 13.76%
[2]
  growth inhibition (GI): 69.59%

## COC(=O)/C=C/c1ccc(OCCC(C)CO)cc1 (stereo not given)
[1]
  growth inhibition (GI): 39.48%
[2]
  growth inhibition (GI): 14.7%

## CC(CO)CCOc1ccc(C=O)cc1 (stereo not given)
[1]
  growth inhibition (GI): -1.05%
[2]
  growth inhibition (GI): 27.41%
